Experimental data from ChEMBL document CHEMBL1201862, “PubChem BioAssay data set” (2004).
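All cell lines were grown in 96-well plates and treated with compound for 48 hours. GI50 marks 50% less growth.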 Active and inactive are the calls of the source. Rule as the data show it: active = GI50 up to about 1.1 µM and inactive = higher.

Key:
Assay in all cases: growth of human tumour cells (NCI), 48 h
786-0 = system: 786-0
A498 = system: A498
A549 = system: A549
ACHN = system: ACHN
BT-549 = system: BT-549
CAKI-1 = system: CAKI-1
CCRF-CEM = system: CCRF-CEM
COLO 205 = system: COLO 205
DU-145 = system: DU-145
EKVX = system: EKVX
HCC 2998 = system: HCC 2998
HCT-116 = system: HCT-116
HCT-15 = system: HCT-15
HOP-62 = system: HOP-62
HOP-92 = system: HOP-92
HT-29 = system: HT-29
Hs-578T = system: Hs-578T
IGROV-1 = system: IGROV-1
K562 = system: K562
KM12 = system: KM12
LOX IMVI = system: LOX IMVI
M14 = system: M14
MCF7 = system: MCF7
MDA-MB-231 = system: MDA-MB-231
MDA-MB-435 = system: MDA-MB-435
MDA-N = system: MDA-N
MOLT-4 = system: MOLT-4
Malme-3M = system: Malme-3M
NCI-H226 = system: NCI-H226
NCI-H23 = system: NCI-H23
NCI-H460 = system: NCI-H460
NCI-H522 = system: NCI-H522
NCI/ADR-RES = system: NCI/ADR-RES
OVCAR-3 = system: OVCAR-3
OVCAR-4 = system: OVCAR-4
OVCAR-5 = system: OVCAR-5
OVCAR-8 = system: OVCAR-8
PC-3 = system: PC-3
RPMI-8226 = system: RPMI-8226
RXF 393 = system: RXF 393
SF-268 = system: SF-268
SF-295 = system: SF-295
SF-539 = system: SF-539
SK-MEL-28 = system: SK-MEL-28
SK-MEL-2 = system: SK-MEL-2
SK-MEL-5 = system: SK-MEL-5
SK-OV-3 = system: SK-OV-3
SN12C = system: SN12C
SNB-19 = system: SNB-19
SNB-75 = system: SNB-75
SR = system: SR
SW-620 = system: SW-620
T47D = system: T47D
TK-10 = system: TK-10
U-251 = system: U-251
UACC-257 = system: UACC-257
UACC-62 = system: UACC-62
UO-31 = system: UO-31
HL-60 = system: HL-60

C=CCOC(=O)N1c2ccc(O[Si](C)(C)C(C)(C)C)cc2[C@@]23O[C@@]24[C@@H]1C#C/C=C\C#C[C@]3(O)C(OC)(OC)C[C@@H]4C
GI50 (786-0): 43.5 µM (inactive) | GI50 (A498): 1.31 µM (inactive) | GI50 (A549): 20 µM (inactive) | GI50 (ACHN): 10.6 µM (inactive) | GI50 (BT-549): > 100 µM (inactive) | GI50 (CAKI-1): 2.71 µM (inactive) | GI50 (CCRF-CEM): > 23.7 µM (inactive) | GI50 (COLO 205): > 26.8 µM (inactive) | GI50 (DU-145): > 80 µM (inactive) | GI50 (EKVX): > 38.5 µM (inactive) | GI50 (HCC 2998): > 22.8 µM (inactive) | GI50 (HCT-116): 8.38 µM (inactive) | GI50 (HCT-15): > 100 µM | GI50 (HOP-62): > 61.7 µM (inactive) | GI50 (HOP-92): 18.2 µM (inactive) | GI50 (HT-29): 12.9 µM (inactive) | GI50 (Hs-578T): 37.8 µM (inactive) | GI50 (IGROV-1): > 100 µM (inactive) | GI50 (K562): 4.14 µM (inactive) | GI50 (KM12): > 100 µM (inactive) | GI50 (LOX IMVI): 16.7 µM (inactive) | GI50 (M14): > 65 µM (inactive) | GI50 (MCF7): 10.8 µM (inactive) | GI50 (MDA-MB-231): > 100 µM (inactive) | GI50 (MDA-MB-435): > 85.1 µM (inactive) | GI50 (MDA-N): > 57.5 µM (inactive) | GI50 (MOLT-4): 2.89 µM (inactive) | GI50 (Malme-3M): > 100 µM (inactive) | GI50 (NCI-H226): 13.6 µM (inactive) | GI50 (NCI-H23): 16.3 µM (inactive) | GI50 (NCI-H460): 11.5 µM (inactive) | GI50 (NCI-H522): 44.6 µM (inactive) | GI50 (NCI/ADR-RES): 41.6 µM (inactive) | GI50 (OVCAR-3): 5.55 µM (inactive) | GI50 (OVCAR-4): 48.6 µM (inactive) | GI50 (OVCAR-5): > 100 µM (inactive) | GI50 (OVCAR-8): > 53.8 µM (inactive) | GI50 (PC-3): 4.54 µM (inactive) | GI50 (RPMI-8226): 18.6 µM (inactive) | GI50 (RXF 393): 29.5 µM (inactive) | GI50 (SF-268): 97.7 µM (inactive) | GI50 (SF-295): > 34.1 µM (inactive) | GI50 (SF-539): > 29.2 µM (inactive) | GI50 (SK-MEL-28): > 100 µM (inactive) | GI50 (SK-MEL-2): > 100 µM (inactive) | GI50 (SK-MEL-5): 18.7 µM (inactive) | GI50 (SK-OV-3): 7.36 µM (inactive) | GI50 (SN12C): > 84.7 µM (inactive) | GI50 (SNB-19): > 74.6 µM (inactive) | GI50 (SNB-75): 4.82 µM (inactive) | GI50 (SR): 33.9 µM (inactive) | GI50 (SW-620): 14 µM (inactive) | GI50 (T47D): 25.3 µM (inactive) | GI50 (TK-10): > 30.5 µM (inactive) | GI50 (U-251): 18.6 µM (inactive) | GI50 (UACC-257): 19 µM (inactive) | GI50 (UACC-62): 10.8 µM (inactive) | GI50 (UO-31): 14.1 µM (inactive)

CC(C)Oc1cc2c(cc1O)CC[C@@H]1[C@@H]2CC[C@]2(C)[C@@H](O)CC[C@@H]12
GI50 (786-0): 4.65 µM (inactive) | GI50 (A498): 6.65 µM (inactive) | GI50 (A549): 5.52 µM (inactive) | GI50 (ACHN): 9.89 µM (inactive) | GI50 (BT-549): 5.71 µM (inactive) | GI50 (CAKI-1): 1.52 µM (inactive) | GI50 (CCRF-CEM): 2.9 µM (inactive) | GI50 (COLO 205): 20 µM (inactive) | GI50 (DU-145): 7.28 µM (inactive) | GI50 (EKVX): 12.7 µM (inactive) | GI50 (HCC 2998): 5.26 µM (inactive) | GI50 (HCT-116): 3.33 µM (inactive) | GI50 (HCT-15): 1.61 µM | GI50 (HL-60): 1.71 µM (inactive) | GI50 (HOP-62): 4.15 µM (inactive) | GI50 (HOP-92): 11.2 µM (inactive) | GI50 (HT-29): 9.84 µM (inactive) | GI50 (Hs-578T): 2.38 µM (inactive) | GI50 (IGROV-1): 6.14 µM (inactive) | GI50 (K562): 1.51 µM (inactive) | GI50 (KM12): 4.2 µM (inactive) | GI50 (LOX IMVI): 4.58 µM (inactive) | GI50 (M14): 3.79 µM (inactive) | GI50 (MCF7): 2.25 µM (inactive) | GI50 (MDA-MB-231): 8.36 µM (inactive) | GI50 (MDA-MB-435): 0.687 µM (active) | GI50 (MDA-N): 0.424 µM (active) | GI50 (MOLT-4): 4.74 µM (inactive) | GI50 (Malme-3M): 3.82 µM (inactive) | GI50 (NCI-H226): 3.23 µM (inactive) | GI50 (NCI-H23): 7.19 µM (inactive) | GI50 (NCI-H460): 3.28 µM (inactive) | GI50 (NCI-H522): 1.58 µM (inactive) | GI50 (NCI/ADR-RES): 2.07 µM (inactive) | GI50 (OVCAR-3): 2.81 µM (inactive) | GI50 (OVCAR-4): 9.64 µM (inactive) | GI50 (OVCAR-5): 27.5 µM (inactive) | GI50 (OVCAR-8): 8.75 µM (inactive) | GI50 (PC-3): 8.97 µM (inactive) | GI50 (RPMI-8226): 4.29 µM (inactive) | GI50 (RXF 393): 3.82 µM (inactive) | GI50 (SF-268): 5.93 µM (inactive) | GI50 (SF-295): 3 µM (inactive) | GI50 (SF-539): 2.42 µM (inactive) | GI50 (SK-MEL-28): 8.3 µM (inactive) | GI50 (SK-MEL-5): 3.01 µM (inactive) | GI50 (SK-OV-3): 4.67 µM (inactive) | GI50 (SN12C): 5.66 µM (inactive) | GI50 (SNB-19): 5.31 µM (inactive) | GI50 (SNB-75): 4.69 µM (inactive) | GI50 (SR): 0.575 µM (active) | GI50 (SW-620): 2.72 µM (inactive) | GI50 (T47D): 4.68 µM (inactive) | GI50 (TK-10): 11 µM (inactive) | GI50 (U-251): 13.3 µM (inactive) | GI50 (UACC-257): 3.99 µM (inactive) | GI50 (UACC-62): 2 µM (inactive) | GI50 (UO-31): 6.46 µM (inactive)
